The values below come from ChEMBL document CHEMBL5137036, “Design and synthesis of highly TRAIL expression HDAC inhibitors based on ONC201 to promote apoptosis of colorectal cancer” (Eur J Med Chem, 2022).

Series [1] relates to HCT-116. Nature of the series: Induction of apoptosis in human HCT-116 cells assessed as viable cells at 0.125 uM incubated for 24 hrs by AnnexinV-FITC/PI staining based flow cytometry (reference value: 93.64%). The class given is functional. Conditions: read-out: Activity.
In series [2] the test system is HCT-116. Briefly: Effect on ac-H4 protein expression in human HCT-116 cells incubated for 12 hrs by Western blot analysis. The class given is functional, cell-based. To be noted: dose 0.125-0.5 µM, DDE = dose-dependent effect.
The target in the next series is T1, Histone deacetylase 11 (Homo sapiens, UniProt Q96DB2).
T1 sequence (Q96DB2 whole entry): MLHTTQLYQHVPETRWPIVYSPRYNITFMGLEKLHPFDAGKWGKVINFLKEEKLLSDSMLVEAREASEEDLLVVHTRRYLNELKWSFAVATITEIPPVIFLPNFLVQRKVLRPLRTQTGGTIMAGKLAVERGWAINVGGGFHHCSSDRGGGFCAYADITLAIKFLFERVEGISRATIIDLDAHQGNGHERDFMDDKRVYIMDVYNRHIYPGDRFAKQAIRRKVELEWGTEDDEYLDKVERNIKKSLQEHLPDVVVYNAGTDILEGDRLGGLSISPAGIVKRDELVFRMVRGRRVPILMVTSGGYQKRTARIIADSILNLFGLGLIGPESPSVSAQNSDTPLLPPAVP
Briefly: Inhibition of human HDAC11 using Boc-Lys(trifluoroacetyl)-AMC as fluorogenic substrate preincubated for 10 mins followed by substrate addition by fluorescence based analysis.

In series [3] the test system is HCT-116. Briefly: Upregulation of DR5 mRNA expression in human HCT-116 cells at 0.25 uM incubated for 12 hrs by RT-PCR analysis. The class given is functional, cell-based.
Series [4] can be described thus: Toxicity in BALB/c mouse xenografted with human HCT-116 cells assessed as morphological changes in liver at 12.5 to 25 mg/kg, po qd administered for 21 days by H & E staining based microscopic analysis. Format: organism-based. To be noted: in vivo, 504 h, dose 12.5-25 mg/kg, time 21 day. On the technique in general: Xenograft models place foreign cells or tissue in a host animal.

The nature of series [5]: Toxicity in BALB/c mouse xenografted with human HCT-116 cells assessed as morphological changes in spleen at 12.5 to 25 mg/kg, po qd administered for 21 days by H & E staining based microscopic analysis. Format: organism-based. To be noted: in vivo, 504 h, dose 12.5-25 mg/kg, time 21 day.
Series [6] concerns HCT-116. Briefly: Induction of apoptosis in human HCT-116 cells assessed as dead cells at 0.25 uM incubated for 24 hrs by AnnexinV-FITC/PI staining based flow cytometry (reference value: 4.62 %). Format: functional. For orientation: In flow cytometry, cells or beads pass a laser one at a time.
Series [7] in a line: Toxicity in BALB/c mouse xenografted with human HCT-116 cells assessed as morphological changes in kidney at 12.5 to 25 mg/kg, po qd administered for 21 days by H & E staining based microscopic analysis. The class given is organism-based. To be noted: in vivo, 504 h, dose 12.5-25 mg/kg, time 21 day.
Series [8] has as its target Histone deacetylase 3/Nuclear receptor corepressor 2 (HDAC3/NCoR2) (Homo sapiens, UniProt O15379). Briefly: Inhibition of human HDAC3/NcoR2 using RHKKAc fluorogenic peptide as substrate preincubated for 10 mins followed by substrate addition by fluorescence based analysis. The class given is protein-complex assay.
Series [9] relates to HCT-116. Nature of the series: Induction of apoptosis in human HCT-116 cells assessed as early apoptotic cells at 0.125 uM incubated for 24 hrs by AnnexinV-FITC/PI staining based flow cytometry (reference value: 0.93 %). The class given is functional.
Series [10] relates to HCT-116. Briefly: Induction of cell cycle arrest in human HCT-116 cells assessed as accumulation of cells at S phase incubated for 12 hrs by propidium iodide staining based flow cytometric analysis. The class given is functional. Conditions: dose 0.125-0.5 µM, DDE = dose-dependent effect.
Series [11] relates to HCT-116. Nature of the series: Induction of apoptosis in human HCT-116 cells assessed as early apoptotic cells at 0.5 uM incubated for 24 hrs by AnnexinV-FITC/PI staining based flow cytometry (reference value: 0.93 %). The class given is functional.
For series [12], the system named is HCT-116. Nature of the series: Induction of apoptosis in human HCT-116 cells assessed as increase in caspase-8 protein expression incubated for 12 hrs by Western blot analysis. Conditions: dose 0.125-0.5 µM, DDE = dose-dependent effect. Format: functional, cell-based. On the technique in general: In western blotting, separated proteins are transferred to a membrane and probed.

Series [13] relates to HCT-116. Nature of the series: Upregulation of TRAIL mRNA expression in human HCT-116 cells at 0.25 uM incubated for 12 hrs by RT-PCR analysis. Format: functional, cell-based.

The source made the active and inactive calls. No cut-off for these calls is given here.

Histone deacetylase 3/Nuclear receptor corepressor 2 (HDAC3/NCoR2), sequence (O15379 whole entry): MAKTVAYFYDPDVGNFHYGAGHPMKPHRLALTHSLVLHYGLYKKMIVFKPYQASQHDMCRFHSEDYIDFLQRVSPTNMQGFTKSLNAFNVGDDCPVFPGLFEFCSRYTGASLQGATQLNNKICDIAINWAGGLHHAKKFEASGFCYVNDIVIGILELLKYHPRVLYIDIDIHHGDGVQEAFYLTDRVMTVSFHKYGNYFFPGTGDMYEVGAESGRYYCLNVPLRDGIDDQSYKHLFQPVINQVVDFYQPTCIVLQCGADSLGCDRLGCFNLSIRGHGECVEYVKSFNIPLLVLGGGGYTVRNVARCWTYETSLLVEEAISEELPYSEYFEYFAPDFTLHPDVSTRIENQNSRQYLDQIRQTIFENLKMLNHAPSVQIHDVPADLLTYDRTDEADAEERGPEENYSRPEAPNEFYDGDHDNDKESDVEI
Histone deacetylase 3/Nuclear receptor corepressor 2 (HDAC3/NCoR2), sequence (Q9Y618 whole entry, further chain): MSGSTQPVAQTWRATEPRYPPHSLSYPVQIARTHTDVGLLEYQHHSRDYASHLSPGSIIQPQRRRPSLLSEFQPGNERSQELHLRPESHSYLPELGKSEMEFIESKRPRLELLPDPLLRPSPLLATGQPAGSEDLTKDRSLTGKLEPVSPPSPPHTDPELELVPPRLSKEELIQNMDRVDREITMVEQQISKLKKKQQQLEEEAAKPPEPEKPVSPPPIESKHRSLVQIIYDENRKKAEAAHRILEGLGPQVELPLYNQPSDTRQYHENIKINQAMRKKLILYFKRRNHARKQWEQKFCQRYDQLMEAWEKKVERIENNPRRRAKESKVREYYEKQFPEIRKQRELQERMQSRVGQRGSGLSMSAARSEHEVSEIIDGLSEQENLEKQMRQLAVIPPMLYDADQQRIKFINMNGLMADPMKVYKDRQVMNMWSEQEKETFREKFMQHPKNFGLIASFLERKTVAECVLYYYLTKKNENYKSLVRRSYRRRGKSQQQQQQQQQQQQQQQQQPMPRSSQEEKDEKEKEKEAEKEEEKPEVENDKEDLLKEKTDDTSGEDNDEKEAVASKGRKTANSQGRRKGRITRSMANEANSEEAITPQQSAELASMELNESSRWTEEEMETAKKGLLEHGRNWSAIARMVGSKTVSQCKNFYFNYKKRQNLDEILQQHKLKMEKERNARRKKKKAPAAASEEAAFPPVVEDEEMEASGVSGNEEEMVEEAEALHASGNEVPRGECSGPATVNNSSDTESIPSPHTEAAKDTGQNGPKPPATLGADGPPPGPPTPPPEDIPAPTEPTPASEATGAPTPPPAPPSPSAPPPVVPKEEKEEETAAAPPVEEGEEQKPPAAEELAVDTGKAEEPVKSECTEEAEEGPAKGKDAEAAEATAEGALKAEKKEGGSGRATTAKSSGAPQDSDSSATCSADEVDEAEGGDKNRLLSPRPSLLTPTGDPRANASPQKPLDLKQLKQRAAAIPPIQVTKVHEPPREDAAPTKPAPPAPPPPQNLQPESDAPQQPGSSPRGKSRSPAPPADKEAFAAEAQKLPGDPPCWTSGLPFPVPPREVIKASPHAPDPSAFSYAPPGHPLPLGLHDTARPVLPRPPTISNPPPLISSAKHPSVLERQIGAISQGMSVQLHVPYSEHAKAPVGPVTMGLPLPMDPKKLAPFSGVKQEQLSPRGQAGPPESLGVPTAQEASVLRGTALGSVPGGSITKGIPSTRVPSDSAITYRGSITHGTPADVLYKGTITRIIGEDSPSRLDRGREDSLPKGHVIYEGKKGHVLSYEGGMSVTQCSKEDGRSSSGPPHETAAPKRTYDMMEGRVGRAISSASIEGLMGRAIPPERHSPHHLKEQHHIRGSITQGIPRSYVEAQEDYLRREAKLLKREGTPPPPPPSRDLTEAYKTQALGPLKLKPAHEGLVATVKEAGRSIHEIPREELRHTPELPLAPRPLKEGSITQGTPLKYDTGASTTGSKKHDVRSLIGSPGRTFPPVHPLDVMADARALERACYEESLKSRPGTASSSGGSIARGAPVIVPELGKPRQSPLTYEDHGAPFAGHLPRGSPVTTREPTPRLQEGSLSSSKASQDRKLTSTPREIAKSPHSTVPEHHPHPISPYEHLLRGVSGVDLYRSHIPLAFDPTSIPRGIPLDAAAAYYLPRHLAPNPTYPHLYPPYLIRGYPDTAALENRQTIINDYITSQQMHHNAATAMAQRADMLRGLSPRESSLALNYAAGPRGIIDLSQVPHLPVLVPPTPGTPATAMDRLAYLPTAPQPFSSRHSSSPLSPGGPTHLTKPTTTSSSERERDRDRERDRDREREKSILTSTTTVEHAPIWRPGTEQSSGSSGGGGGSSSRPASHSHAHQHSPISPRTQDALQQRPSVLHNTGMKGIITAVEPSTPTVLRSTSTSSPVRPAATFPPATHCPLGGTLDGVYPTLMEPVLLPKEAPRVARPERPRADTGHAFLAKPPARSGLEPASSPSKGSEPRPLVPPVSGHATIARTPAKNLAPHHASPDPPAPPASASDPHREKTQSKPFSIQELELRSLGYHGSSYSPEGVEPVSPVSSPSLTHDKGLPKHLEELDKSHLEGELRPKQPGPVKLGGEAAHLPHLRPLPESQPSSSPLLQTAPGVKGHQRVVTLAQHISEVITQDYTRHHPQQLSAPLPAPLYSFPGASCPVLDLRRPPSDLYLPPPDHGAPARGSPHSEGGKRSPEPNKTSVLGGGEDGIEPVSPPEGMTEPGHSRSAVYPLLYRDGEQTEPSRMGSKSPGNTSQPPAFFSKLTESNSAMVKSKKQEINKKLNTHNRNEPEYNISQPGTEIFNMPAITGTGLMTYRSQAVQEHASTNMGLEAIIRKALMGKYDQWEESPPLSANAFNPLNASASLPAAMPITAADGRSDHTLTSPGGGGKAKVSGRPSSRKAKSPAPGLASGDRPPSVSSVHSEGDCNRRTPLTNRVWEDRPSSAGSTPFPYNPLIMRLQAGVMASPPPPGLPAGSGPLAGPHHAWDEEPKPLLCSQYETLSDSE

With `COc1ccccc1CN1C(=O)C2=C(CCN(Cc3ccc(C(=O)Nc4ccccc4N)cc3)C2)N2CCN=C12`, the viability at 0.125 µM in the series with HCT-116 [1] was found to be 91.5%. Besides, the Activity entry in the series with HCT-116 [2] is “Dde”; in series [4], “Non-Toxic”; in series [5], “Non-Toxic”; in the series with HCT-116 [6] it was 4.06%; in series [7], “Non-Toxic”; with HCT-116 [9], 0.87%. The Activity result in the series on HCT-116 [10] is “Dde”; in the series on HCT-116 [11] it was 1.22%; in the series on HCT-116 [12], “Dde”. Besides, the figures for the concentration for half-maximal inhibition (IC50) (at Histone deacetylase 11; in series [8]) were greater than 10000 nM and 589 nM, respectively. In addition, the outcome in the series with HCT-116 [3] and in the series on HCT-116 [13] was Active.
